Broadly, the inhibition is the change of the read-out against control, counted positive when it falls.

The target in the first test is T1, ETA Receptor (Rattus norvegicus, UniProt P26684).
T1 construct: endogenous in cells; host or cells: MMQ rat pituitary cells (membranes)
T1 sequence (P26684 21-426): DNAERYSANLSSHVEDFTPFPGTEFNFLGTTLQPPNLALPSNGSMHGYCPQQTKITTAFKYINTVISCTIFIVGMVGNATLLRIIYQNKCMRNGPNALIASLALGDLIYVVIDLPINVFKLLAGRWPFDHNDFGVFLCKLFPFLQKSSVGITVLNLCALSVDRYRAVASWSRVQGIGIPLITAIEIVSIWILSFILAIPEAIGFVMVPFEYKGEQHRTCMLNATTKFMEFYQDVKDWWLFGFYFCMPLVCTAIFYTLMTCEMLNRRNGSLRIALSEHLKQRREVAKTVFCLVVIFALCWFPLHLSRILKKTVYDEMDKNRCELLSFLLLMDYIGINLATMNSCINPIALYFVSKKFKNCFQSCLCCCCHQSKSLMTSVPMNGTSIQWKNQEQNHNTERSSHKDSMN
The test can be described thus: [125I]ET-1 binding to membranes from MMQ cells (ETA receptor binding assay, Table 4). The conditions noted are these: test compound at 1 μM; 0.1 nM [125I]ET-1, MMQ cell membranes, 4 hours at 25° C.
For `CCCCN(CCCC)C(=O)CN1CC(c2ccc3c(c2)OCO3)C(C(=O)O)C1c1ccc(CC)cc1` (stereo not drawn) [Example 307, trans—trans-2-(4-Ethylphenyl)-4-(1,3-benzodioxol-5-yl)-1-[N,N-di(n-butyl)aminocarbonylmethyl]-pyrrolidine-3-carboxylic acid], the “% Inhibition of ETA at 1 μM” value was determined as 92.2%. Take `CCCCN(CCCC)C(=O)CN1CC(c2ccc3c(c2)OCO3)C(C(=O)O)C1CCOC` (stereo not drawn) [Example 309, trans—trans-2-(2-Methoxyethyl)-4-(1,3-benzodioxol-5-yl)-1-[N,N-di(n-butyl)aminocarbonylmethyl]-pyrrolidine-3-carboxylic acid]: the “% Inhibition of ETA at 1 μM” value is listed as 80.7%.

`CCCCCS(=O)(=O)N(CC)CCN1CC(c2ccc3c(c2)OCO3)C(C(=O)O)C1c1ccc(OC)cc1` (stereo not drawn) [Example 310, trans,trans-2-(4-Methoxyphenyl)-4-(1,3-benzodioxol-5-yl)-1-(2-(N-ethyl-N-n-pentanesulfonylamino)ethyl)-pyrrolidine-3-carboxylic acid]: the “% Inhibition of ETA at 1 μM” value is recorded as 87.1%. The same measure, in the same setting: next, `COc1ccc(C2C(C(=O)O)C(c3ccc4c(c3)OCO4)CN2CC(=O)N(C2CCCCC2)C2CCCCC2)cc1` (stereo not drawn) [Example 311, trans—trans-2-(4-Methoxyphenyl)-4-(1,3-benzodioxol-5-yl)-1-[N,N-dicyclohexylaminocarbonylmethyl]-pyrrolidine-3-carboxylic acid]: 92.3%; `CCCN(CCN1CC(c2ccc3c(c2)OCO3)C(C(=O)O)C1c1ccc(OC)cc1)C(=O)OC(C)(C)C` (stereo not drawn) [Example 312, trans—trans-2-(4-Methoxyphenyl)-4-(1,3-benzodioxol-5-yl)-1-[2-(N-propyl-N-tert-butoxycarbonylamino)ethyl]-pyrrolidine-3-carboxylic acid]: 88.2%. As for `CCCCN(CCCC)C(=O)CN1CC(c2ccc3c(c2)OCO3)C(C(=O)O)C1c1ccc(OC)c(F)c1` (stereo not drawn) [Example 313, trans—trans-2-(4-Methoxy-3-fluorophenyl)-4-(1,3-benzodioxol-5-yl)-1-[N,N-di(n-butyl)aminocarbonylmethyl]-pyrrolidine-3-carboxylic acid], the “% Inhibition of ETA at 1 μM” value worked out at 96.3%. Still for that read-out and setting: next, `CCCCCS(=O)(=O)N(CCC)CCN1CC(c2ccc3c(c2)OCO3)C(C(=O)O)C1CCC` (stereo not drawn) [Example 314, trans,trans-2-(Propyl)-4-(1,3-benzodioxol-5-yl)-1-(2-(N-propyl-pentanesulfonylamino)ethyl)pyrrolidine-3-carboxylic acid]: 86.0%. On the same count and under the same terms, with `CCc1ccccc1C(NC(=O)CN1CC(c2ccc3c(c2)OCO3)C(C(=O)O)C1c1ccc(OCCOC(C)C)cc1)c1ccccc1C` (stereo not drawn) [Example 559, trans,trans-2-[4-(2-Isopropopoxyethoxy)phenyl]-4-(1,3-benzodioxol-5-yl)-1-(N-((1-(o-tolyl)-1-(o-ethylphenyl)-methyl)amino)carbonylmethyl)-pyrrolidine-3-carboxylic acid] the figure was 5.8%; with `CC(C)OCCOc1ccc(C2C(C(=O)O)C(c3ccc4c(c3)OCO4)CN2CC(=O)NN(c2ccccc2)C(C)(C)C)cc1` (stereo not drawn) [Example 560, trans,trans-2-(4-(2-(2-Propoxy)ethoxy)phenyl)-4-(1,3-benzodioxol-5-yl)-1-N-phenyl-N-t-butylhydrazino carbonylmethyl)-pyrrolidine-3-carboxylic acid], 0%; with `COCCOc1ccc(C2C(C(=O)O)C(c3ccc4c(c3)OCO4)CN2CC(=O)NN(c2ccccc2)C(C)(C)C)cc1` (stereo not drawn) [Example 561, trans,trans-2-(4-(2-Methoxyethoxy)phenyl)-4-(1,3-benzodioxol-5-yl)-1-(N-phenyl-N-t-butylhydrazinocarbonylmethyl)-pyrrolidine-3-carboxylic acid], 0%.

Staying with this test, now noted: test compound at 1 μM; 0.1 nM [125I]ET-1, MMQ cell membranes, 4 hours at 25° C.; read-out: % Inhibition of ETA at 1 μM.
On to `COc1ccc(C2C(C(=O)O)C(c3ccc4c(c3)OCO4)CN2CC(=O)Nc2ccccc2)cc1` (centres unmarked) [Example 495], for which the inhibition at 1 µM amounted to 95.9%.
